Peptide text beside a SMILES is read from it. * marks the point of attachment. Cbz = O=C(OCc1ccccc1)*
Assays:
CEM-SS cells [1] = assay: Growth of infected CEM-SS cells, trypan blue staining; assay type: cell-based; details: infected cells with 50 μM peptide, trypan blue staining every other day
CEM cells [2] = assay: Cytotoxicity assay (CellTiter-Glo) in CEM cells; assay type: cell-based; details: 2-fold dilutions from 100 μM, 48 h, DMSO group = 100%
CEM cells [3] = assay: Growth of infected CEM cells, trypan blue staining; assay type: cell-based; details: infected cells with 50 μM peptide, trypan blue staining every other day
CEM-SS cells [4] = assay: Cytotoxicity assay (CellTiter-Glo) in CEM-SS cells; assay type: cell-based; details: 2-fold dilutions from 100 μM, 48 h, DMSO group = 100%
[5] = test system: HIV-1 NL4-3 packaged with A3G; assay type: cell-based; details: peptides at 25, 50 or 100 μM; DMSO group set to 100%; TZM-bl read-out
[6] = test system: A3G (Vif-mediated degradation); assay: A3G level in the presence of Vif by Western blotting in HEK293T cells; assay type: cell-based, human; details: proteasome inhibitor positive control; A3G without Vif = 100%, Vif alone 31%
[7] = target: wild-type (WT) Vif displayed on yeast cells (HIV-1) (UniProt P69723); assay: flow cytometry on cells
Sequence of UniProt P69723 (P69723 whole entry): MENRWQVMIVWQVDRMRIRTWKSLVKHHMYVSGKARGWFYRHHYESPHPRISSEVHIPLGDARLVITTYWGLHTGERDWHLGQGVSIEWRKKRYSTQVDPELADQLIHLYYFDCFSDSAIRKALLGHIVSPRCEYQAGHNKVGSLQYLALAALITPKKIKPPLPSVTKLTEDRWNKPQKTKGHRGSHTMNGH

Question: What does the source list for `CC[C@H](C)[C@H](NC(=O)[C@H](C)NC(=O)[C@H](CC(C)C)NC(=O)CNC(C)=O)C(=O)N[C@H](C(=O)N[C@H](C(=O)N[C@@H](Cc1ccc(O)cc1)C(=O)N[C@@H](Cc1c[nH]c2ccccc12)C(=O)NCC(=O)N[C@@H](CC(C)C)C(=O)N[C@@H](Cc1c[nH]cn1)C(=O)N[C@H](C(=O)NCC(=O)N[C@@H](CCC(=O)O)C(=O)N[C@@H](CCCNC(=N)N)C(=O)NCC(N)=O)[C@@H](C)O)[C@@H](C)O)[C@@H](C)O` [VMP-63]?
Answer: growth of CEM-SS cells (CEM-SS cells [1]): not affected; cytotoxicity on CEM cells (CEM cells [2]): almost no cytotoxicity; growth of CEM cells (CEM cells [3]): not affected; cytotoxicity on CEM-SS cells (CEM-SS cells [4]): almost no cytotoxicity

Question: What does the source list for `CC[C@H](C)[C@H](NC(=O)[C@H](C)NC(=O)[C@H](CO)NC(=O)[C@H](CC(N)=O)NC(=O)[C@H](CO)NC(=O)[C@H](Cc1ccccc1)NC(=O)[C@H](CS)NC(=O)[C@H](CC(=O)O)NC(=O)[C@H](Cc1ccccc1)NC(=O)[C@H](Cc1ccc(O)cc1)NC(=O)[C@H](Cc1ccc(O)cc1)NC(=O)[C@H](CC(C)C)NC(=O)[C@H](CCCNC(=N)N)NC(C)=O)C(N)=O` [VMP-108]?
Answer: growth of CEM-SS cells (CEM-SS cells [1]): not affected; cytotoxicity on CEM cells (CEM cells [2]): almost no cytotoxicity; growth of CEM cells (CEM cells [3]): not affected; cytotoxicity on CEM-SS cells (CEM-SS cells [4]): almost no cytotoxicity

Question: How did the “effect on infectivity of the A3G-containing viruses” value (“effect on infectivity” for short) [5] turn out when `CC(=O)N[C@@H](Cc1c[nH]c2ccccc12)C(=O)NCC(=O)N[C@@H](CC(C)C)C(=O)N[C@@H](Cc1c[nH]cn1)C(=O)N[C@H](C(=O)NCC(=O)N[C@@H](CCC(=O)O)C(=O)N[C@@H](CCCNC(=N)N)C(=O)NCC(N)=O)[C@@H](C)O` [VMP-70] (Ac-WGLHTGERG-NH2) was run?
Answer: Its value is “did not affect the viral infectivity”.

Question: `CC[C@H](C)[C@H](NC(=O)[C@H](CCSC)NC(=O)[C@@H](NC(=O)[C@H](CCC(=O)O)NC(C)=O)C(C)C)C(=O)N[C@H](C(=O)N[C@@H](Cc1c[nH]c2ccccc12)C(=O)N[C@@H](CCC(=O)O)C(=O)N[C@H](C(=O)N[C@@H](CC(=O)O)C(=O)N[C@@H](CCCNC(=N)N)C(=O)N[C@@H](CCSC)C(=O)N[C@@H](CCCNC(=N)N)C(=O)N[C@H](C(=O)N[C@H](C(=O)N[C@H](C(N)=O)[C@@H](C)O)[C@@H](C)O)[C@@H](C)CC)C(C)C)C(C)C` [VMP-6] (Ac-EVMIVWEVDRMRITT-NH2) was tested. Which “effect on infectivity” value [5] did it give?
Answer: Its value is “did not affect the viral infectivity”.

Question: Which “effect on infectivity” value [5] does the source give for `CC(=O)N[C@@H](Cc1ccc(O)cc1)C(=O)N[C@@H](Cc1ccccc1)C(=O)N[C@@H](CC(=O)O)C(=O)N[C@@H](CS)C(=O)N[C@@H](Cc1ccccc1)C(=O)N[C@@H](CO)C(=O)N[C@@H](CC(N)=O)C(=O)N[C@@H](CO)C(=O)N[C@@H](C)C(=O)N[C@H](C(=O)N[C@@H](CCCNC(=N)N)C(=O)N[C@@H](CCCCN)C(=O)N[C@H](C(N)=O)C(C)C)[C@@H](C)O` [VMP-111] (Ac-YFDCFSNSATRKV-NH2) here?
Answer: Its value is “did not affect the viral infectivity”.

Question: Which “A3G level in the presence of Vif” value [6] does the source give for `CC(C)C[C@@H](C=O)NC(=O)[C@H](CC(C)C)NC(=O)[C@H](CC(C)C)NC(=O)OCc1ccccc1` [MG132] (Cbz-Leu-Leu-Leu-aldehyde) here?
Answer: Its value is 73%.

Question: Which FITC-positive cells [7] does the source give for “CBFβ protein, purified (from UniProt Q13951 1-182) (natural protein)” here?
Answer: Its FITC-positive cells is 0.076%.

Reference: PMC11053914 (Viruses, 2024)
